Experiments:
[1] = molecular target: T1, Tau-tubulin kinase 1 (Homo sapiens, UniProt Q5TCY1); assay: Binding affinity to phosphorylated TTBK1 (unknown origin) by SPR analysis
[2] = molecular target: T1, Tau-tubulin kinase 1; assay: Binding affinity to phosphorylated TTBK1 (unknown origin) assessed as association rate constant by SPR analysis
[3] = Inhibition of FTK (unknown origin); parameters: species or system Homo sapiens

T1 sequence (Q5TCY1 whole entry): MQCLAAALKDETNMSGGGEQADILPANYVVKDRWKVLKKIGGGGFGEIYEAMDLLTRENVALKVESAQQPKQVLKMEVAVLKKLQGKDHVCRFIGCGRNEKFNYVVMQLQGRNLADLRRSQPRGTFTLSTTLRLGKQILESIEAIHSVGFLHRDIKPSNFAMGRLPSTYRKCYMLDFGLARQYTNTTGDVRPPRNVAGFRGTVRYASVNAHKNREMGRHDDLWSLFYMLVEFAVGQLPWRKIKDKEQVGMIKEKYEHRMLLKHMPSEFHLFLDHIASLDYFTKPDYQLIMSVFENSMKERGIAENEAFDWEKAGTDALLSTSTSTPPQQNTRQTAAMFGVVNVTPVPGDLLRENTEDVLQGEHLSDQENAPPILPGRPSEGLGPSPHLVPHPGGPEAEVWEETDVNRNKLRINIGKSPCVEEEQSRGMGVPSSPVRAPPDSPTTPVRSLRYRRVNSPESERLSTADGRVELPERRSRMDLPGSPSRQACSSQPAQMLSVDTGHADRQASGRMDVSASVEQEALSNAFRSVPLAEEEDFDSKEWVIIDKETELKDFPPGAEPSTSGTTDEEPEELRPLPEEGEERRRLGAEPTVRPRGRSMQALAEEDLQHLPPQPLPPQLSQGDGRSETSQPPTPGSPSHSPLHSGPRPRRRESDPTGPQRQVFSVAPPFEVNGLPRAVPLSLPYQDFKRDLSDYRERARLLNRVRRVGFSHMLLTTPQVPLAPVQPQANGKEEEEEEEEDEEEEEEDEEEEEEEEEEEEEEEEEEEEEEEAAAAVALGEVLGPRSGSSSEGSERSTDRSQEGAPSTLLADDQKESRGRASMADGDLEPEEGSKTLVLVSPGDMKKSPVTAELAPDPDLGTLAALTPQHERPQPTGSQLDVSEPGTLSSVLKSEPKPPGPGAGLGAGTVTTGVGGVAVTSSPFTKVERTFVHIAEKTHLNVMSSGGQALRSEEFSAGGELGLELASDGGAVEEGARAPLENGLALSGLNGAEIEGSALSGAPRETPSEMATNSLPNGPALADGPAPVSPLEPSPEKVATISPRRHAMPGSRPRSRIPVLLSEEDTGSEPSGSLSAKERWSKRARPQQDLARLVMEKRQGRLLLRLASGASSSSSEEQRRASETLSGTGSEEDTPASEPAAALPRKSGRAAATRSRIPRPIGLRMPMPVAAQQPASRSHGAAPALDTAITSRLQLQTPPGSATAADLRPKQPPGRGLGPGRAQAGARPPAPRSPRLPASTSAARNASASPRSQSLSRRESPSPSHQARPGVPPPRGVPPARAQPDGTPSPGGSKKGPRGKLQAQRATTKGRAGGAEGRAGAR

SMILES	Kd [1] [µM]	K [2] [×10⁶ /s]	IC50 [3] [µM]
COC(=O)c1cc(Nc2ncnc3[nH]ccc23)ccc1Br	4.1	–	–
COc1cc2ncnc(Nc3cccc(O)c3)c2cc1OC	–	6.8	11
